The values that follow come from patent publication US20060269995A1, “Novel assays utilizing nicotinic acetylcholine receptor subunits” (priority 2005, published 2006).

In this experiment the test system is Dα6 and C. elegans ric3 expressed in D.Mel-2 cells. Nature of the experiment: [3H]DHSA radioligand displacement binding in D.Mel-2 cells. On the set-up: species or system Drosophila melanogaster. Particulars: D.Mel-2 cells expressing Dα6 and C. elegans ric3. The method, then: D.Mel-2 cells were seeded into 75 cm^2 flasks at 1.9×10^7 cells/flask in Drosophila SFM containing antibiotic/antimicotic and incubated overnight at 27° C. The transfection mix was prepared in 12×75 mm polystyrene tubes by mixing 1630 μl sterile water, 40 μg pIB/V5-HisA/ric3, 40 μg pIB/V5-HisA/30D and 250 μl CellFectin. The reagents were mixed gently and incubated at room temp for 15 minutes. While the transfection mix was incubating, the cells were washed with 10 ml fresh Drosophila SFM without antibiotics; this media was then removed from the cells and replaced with 6 ml fresh Drosophila SFM without antibiotics. To the transfection mix was added 4 ml Drosophila SFM without antibiotics and this was then transferred to the flask. The reagents were gently mixed by pipetting up and down and then incubated overnight at 27° C.
D.Mel-2 cells were purchased from Invitrogen (Carlsbad, Calif.) and grown in disposable 125 ml shake flasks using 50 ml volume. Cells were subcultured to 3×10^5 cells/ml twice per week in Drosophila SFM containing 5 ml/L Antibiotic-Antimycotic (100×) (Gibco, Carlsbad, Calif.). D.Mel-2 cells were seeded into a 12-well plate at a cell density of 5×10^5 cells/well and incubated overnight at 27° C. In a 12×75 mm polystyrene tube 6 μg pIB/V5-HisA/ric3, 82 μl sterile H2O and 12 μl CellFectin (Invitrogen, Carlsbad, Calif.) were added. The sample was mixed gently and incubated at room temperature for 15 minutes. While the transfection mix was incubating, media from one well of cells was removed and replaced with 1 ml fresh media without antibiotics. After 15 minutes, the media was removed from cells. To this transfection mix, 0.5 ml media (no antibiotics) was added. This solution was then added to the cells. The mixture was incubated for 48 hrs at 27° C. After 48 hrs, the cells were scraped from the plate using a cell scraper and split into 4 wells of a 6-well plate each containing 2 ml Drosophila SFM with antibiotics. Cells were allowed to attach for 1 hr at 27° C.; the media was removed and replaced with 2 ml fresh media containing 25 μg/ml Blasticidin S (Invitrogen, Carlsbad, Calif.). Cells were incubated at 27° C. for 5 days. After 5 days, the cells were scraped loose from the wells and combined into one tube. Cells were spun down at 600 rpm in a tabletop centrifuge; the media was removed and the cells were resuspended into a 50 ml shake culture in fresh Drosophila SFM containing 25 μg/ml Blasticidin S. The cells were incubated at 27° C./140 rpm. Cells were subcultured twice weekly back to cell density of 3×10^5 cells/ml. After 4 weeks the selection was cut back to 10 μg/ml Blasticidin S. After 3 months of growth under selection, a 12 well plate was seeded at 5×10^5 cells/well and cells were incubated over night at 27° C. The following reagents were added to each of three 12×75 mm polystyrene tubes: 2 μg pMT/V5-HisA/30D, 0.15 μg pCoHygro (Invitrogen, Carlsbad, Calif.) (a […] ratio of expression plasmid:selection plasmid), 89 μl sterile H2O and 12 μl CellFectin. The samples were mixed gently and incubated at room temp for 15 minutes and then transfected as described above. After 24 hrs, the media containing transfection mix was removed and replaced with 1 ml fresh media containing antibiotics. The incubation was continued at 27° C. for another 24 hrs. Cells were scraped loose from the 12-well plate (3 wells) and split into 2, 6-well plates. Cells were allowed to attach for 6 hours at which point, the media was replaced with 2 ml/well fresh media containing 200, 150, 100 or 50 μg/ml hygromycin B. The incubation was continued at 27° C.; every 4-5 days, the media was replaced with media containing hygromycin every 4-5 days. After 2 weeks of selection in the plates, the cells from the 200 μg/ml selection, were scraped loose and then gently pelleted and resuspended in 25 ml fresh media containing 200 μg/ml hygromycin B and then placed into a 125 ml shake flask.

Consider `CC[C@H]1CCC[C@H](O[C@H]2CC[C@H](N(C)C)[C@@H](C)O2)[C@@H](C)C(=O)C2=C[C@@H]3[C@@H](C=C[C@@H]4C[C@@H](O[C@@H]5O[C@@H](C)[C@H](OC)[C@@H](OC)[C@H]5OC)C[C@@H]34)[C@@H]2CC(=O)O1` [Spinosyn A, spinosyn A], for which the “displacement of [3H]DHSA binding” value is listed as “significant displacement”.
